Results reported in US10800807B2, “TGR5 modulators and methods of use thereof” (Intercept Pharmaceuticals, Inc., priority 2015, dated 2020).
Positions count from the first letter of the chain named. Values after ≈ are worked out from the molar mass of the structure shown. Read-outs that look alike come from different tables or passages of the source.

Legend:
[1] = Critical micellar concentration (surface tension / dye solubilization); format: physicochemical; settings: for CMC: BA sodium salts in 0.1 M NaCl, 25° C.; for STCMC: surface tension at CMC
Experimental: In the first method, the surface tension was performed by maximum bubble-pressure method using a Sensadyne 6000 tensiometer (Chem-Dyne Research Corp., Milwaukee, Wis.). The surface tension of aqueous solutions at various concentrations (range 0.1-100 mM) of the BA sodium salts in 0.1 M NaCl was measured at 25° C. The surface tension values were plotted against the logarithm of the bile salt concentration; the regression lines corresponding to the two parts of the curve (monomeric and micellar phases) were calculated using the method of least squares. The critical micellar concentration (CMC) value (mM) was obtained by the intersection of the two lines.
The second method is based on the fact that some dyes, specifically Orange OT ([…]), are almost insoluble in water but dissolve in solutions with micellar aggregates that incorporate them; thus, the intensity of color of the solution increases with bile salt concentration (after CMC achievement). The amount of dye solubilized in relation to bile salt concentration was determined spectrophotometrically.
For each bile acid, various solution at different concentrations, between 50 mM and 0.1 mM with appropriate dilutions, were incubated under stirring at room temperature for 3 days with an excess of Orange OT. Then all the solutions were centrifuged and filtered through a 0.22 μm Millipore fiiter (Millipore Corp., Bedford, Mass.).

[2] = Lipophilicity, 1-octanol/water partition coefficient (shake-flask); format: physicochemical; settings: pH 8.00, ionized BA
Experimental: The experiments were carried out on 1 mM initial bile salt solution buffered at pH 8.00 with 0.1 M potassium phosphate buffer to ensure complete ionization of the BA. BA concentration in the water phase before and after partition in 1-octanol was measured by HPLC-ESMS/MS as reported below.

[3] = Critical micellar concentration (surface tension / dye solubilization); format: physicochemical
bovine serum albumin = bovine serum albumin (Bos taurus, UniProt P02769); test: Albumin binding by equilibrium dialysis; format: in vitro ADME; settings: 5% bovine serum albumin saline solution, 25° C.
Experimental: BA was dissolved at a concentration of […] in 5% bovine serum albumin saline solution and left to stand for 24 hours at 25° C. Two milliliters of this solution was dialyzed in cellulose sacs with a molecular weight cut-off of 12-14 kDa (Spectra/Por; Spectrum Medical Industries Inc., Rancho Dominguez, Calif.) against 25 ml of saline solution. The system was equilibrated by mechanical shaking for 72 hours at 25° C. BA concentrations in the starting solution and in the dialyzed solution were determined by HPLC-ES-MS/MS as reported below.

Water solubility = format: physicochemical; settings: 0.1 M HCl, pH 1.00, 25° C.; for solubility thermodynamic at 1 week: read-out: Ws; for Ws: 1 week
Experimental: BA were suspended in 100 ml of 0.1 M HCl, pH 1.00, and the saturated solutions were transferred to a thermostat-equipped water bath maintained at 25° C. After incubation for 1 week, the solutions were filtered on a Millipore filter ([…]), and the concentration of BA was measured by HPLC-ESMS/MS as reported below.

[4] = target: T1, human glutathione transferase-tagged FXR-LBD (Homo sapiens, UniProt Q96RI1); test: FXR AlphaScreen coactivator recruitment assay (human); format: biochemical; design: Emax: dose or concentration left out as unconfirmed; settings: for EC50: human FXR-LBD, AlphaScreen, read-out: hFXR EC50; for Emax: read-out: hFXR Efficacy;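 as to hFXR Efficacy: CDCA at 50 µM taken as 100%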
T1 construct: human glutathione transferase-tagged FXR-LBD (Life Technologies, USA); purchased Life Technologies, USA
T1 sequence (Q96RI1 262-486 limits assumed): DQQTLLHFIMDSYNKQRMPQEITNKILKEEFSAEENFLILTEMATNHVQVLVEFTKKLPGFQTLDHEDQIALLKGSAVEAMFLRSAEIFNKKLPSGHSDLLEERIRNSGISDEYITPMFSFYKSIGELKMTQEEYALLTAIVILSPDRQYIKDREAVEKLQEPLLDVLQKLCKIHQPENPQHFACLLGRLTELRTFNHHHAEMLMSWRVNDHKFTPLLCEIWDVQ
Experimental: (§1) Activation of the FXR receptor was determined using a recruitment coactivator assay, namely AlphaScreen technology. The assays were performed using human glutathione transferase-tagged FXR-LBD (Life Technologies, USA) and mouse glutathione transferase-tagged FXR-LBD (generated in-house). Briefly, assays were conducted in white, low-volume, 384-well OptiPlate using a final volume of 25 μL containing 10 nM glutathione transferase-tagged FXR-LBD protein and 30 nM biotinylated Src-1 peptide. The stimulation was carried out with different BA concentrations for 30 minutes at 25° C. […] Dose-response curves were performed in triplicate and Z′ factor was used to validate the robustness of the assay.

TGR5 [5] = target: T2, TGR5 (Homo sapiens, UniProt Q8TDU6); test: TGR5 activity: cAMP in hTGR5 CHO-k1 cells; format: cell-based; design: expressed in transfected cells; host or cells: CHO-k1; settings: hTGR5 CHO cells; for Emax: 0.5 h, Ref. LCA 100% at 10 μM, read-out: hTGR5 CHO Efficacy; for EC50: cAMP
T2 sequence (Q8TDU6 1-330): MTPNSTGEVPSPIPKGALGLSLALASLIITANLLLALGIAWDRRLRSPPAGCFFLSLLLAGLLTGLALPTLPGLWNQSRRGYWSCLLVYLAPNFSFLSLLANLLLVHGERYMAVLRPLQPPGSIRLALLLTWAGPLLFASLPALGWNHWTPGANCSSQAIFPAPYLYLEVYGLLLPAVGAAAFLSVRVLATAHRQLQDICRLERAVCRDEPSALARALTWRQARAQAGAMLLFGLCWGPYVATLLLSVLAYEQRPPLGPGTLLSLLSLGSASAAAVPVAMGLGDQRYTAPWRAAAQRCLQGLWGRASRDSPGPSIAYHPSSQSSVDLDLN

TGR5 [6] = target: T2, TGR5; test: TGR5 activity: intracellular cAMP levels, NCI-H716 cells (HTR-FRET); format: cell-based; design: endogenous in cells; host or cells: NCI-H716; settings: NCI-H716 cells; for Emax: 1 h, Ref. LCA 100% at 10 μM, read-out: TGR5 (NCI-H716) Efficacy; for EC50: cAMP
Experimental: Activation of TGR5 was assessed by measuring the level of cAMP using an HTR-FRET assay. Thus, NCI-H716 cells were cultured on 96-well plates coated with Matrigel (Corning, USA) (0.75 mg/ml) in DMEM supplemented with 10% FCS, 100 units/ml penicillin, and 100 μg/ml streptomycin sulphate. […] The level of intracellular cAMP was determined with Lance kit. Z′ factor was used to validate assays.

mTGR5 = target: T3, mTGR5 (Mus musculus, UniProt Q80SS6); test: TGR5 activity: cAMP in mTGR5 CHO-Pi10 clone 4 cells; format: cell-based; settings: mTGR5 CHO cells, value in parentheses; for Emax: 0.5 h, read-out: (mTGR5 CHO) Efficacy
T3 construct: expressed in transfected cells; host or cells: CHO-Pi10 clone 4
T3 sequence (Q80SS6 1-329): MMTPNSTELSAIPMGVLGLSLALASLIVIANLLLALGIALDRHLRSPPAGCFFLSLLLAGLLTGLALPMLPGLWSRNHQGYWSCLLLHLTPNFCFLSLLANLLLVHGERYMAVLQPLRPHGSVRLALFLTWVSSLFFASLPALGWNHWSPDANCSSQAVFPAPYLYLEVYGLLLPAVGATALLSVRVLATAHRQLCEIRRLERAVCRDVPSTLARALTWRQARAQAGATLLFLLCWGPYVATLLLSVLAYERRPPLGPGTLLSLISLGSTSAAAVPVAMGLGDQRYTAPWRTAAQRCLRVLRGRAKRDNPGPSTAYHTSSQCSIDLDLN

[7] = target: T4, mouse glutathione transferase-tagged FXR-LBD (Mus musculus, UniProt Q60641); test: FXR AlphaScreen coactivator recruitment assay (mouse); format: biochemical; settings: mouse FXR-LBD, value in parentheses; for EC50: read-out: (mFXR) EC50; for Emax: read-out: (mFXR) Efficacy
T4 construct: mouse glutathione transferase-tagged FXR-LBD (generated in-house); made in house
T4 sequence (Q60641 264-488 limits assumed): T1 sequence (Q96RI1 262-486 limits assumed) with H7D, F8Y, N46S, V50I, S95A, S98A, N107K, I125V, I174M, H175Y
Experimental: as §1

[8] = simulated gastric fluid, thermodynamic from solid

Chain of bovine serum albumin (P02769 25-607): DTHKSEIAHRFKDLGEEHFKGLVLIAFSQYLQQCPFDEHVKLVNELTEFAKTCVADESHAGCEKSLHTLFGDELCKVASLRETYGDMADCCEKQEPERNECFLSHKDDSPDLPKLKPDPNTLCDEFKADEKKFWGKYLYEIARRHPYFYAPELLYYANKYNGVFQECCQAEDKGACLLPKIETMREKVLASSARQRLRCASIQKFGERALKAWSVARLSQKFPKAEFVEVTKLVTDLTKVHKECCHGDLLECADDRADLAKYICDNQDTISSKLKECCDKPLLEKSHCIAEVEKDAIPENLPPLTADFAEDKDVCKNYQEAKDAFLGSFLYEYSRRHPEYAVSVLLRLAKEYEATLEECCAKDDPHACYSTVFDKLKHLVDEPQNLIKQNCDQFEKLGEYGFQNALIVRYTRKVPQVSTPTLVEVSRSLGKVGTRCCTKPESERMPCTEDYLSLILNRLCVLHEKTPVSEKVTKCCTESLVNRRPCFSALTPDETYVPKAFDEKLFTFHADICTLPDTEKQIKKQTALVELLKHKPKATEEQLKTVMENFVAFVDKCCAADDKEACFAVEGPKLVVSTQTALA

Compound	CMC [1]	STCMC [1]	LogPA− [2]	CMpH [3]	Albumin binding (%) (bovine serum albumin)	solubility thermodynamic at 1 week (Water solubility)	Ws (Water solubility)	pKa (pKa)	solubility thermodynamic at 1 week (Water solubility; [8])	EC50 [4]	Emax [4]	Emax (TGR5 [5])	EC50 (TGR5 [5])	Emax (TGR5 [6])	EC50 (TGR5 [6])	Emax (mTGR5)	EC50 (mTGR5)	EC50 [7]	Emax [7]
CC[C@H]1[C@@H](O)C2C3CC[C@H]([C@H](C)CC(F)(F)C(=O)O)[C@@]3(C)[C@@H](O)CC2[C@@]2(C)CC[C@@H](O)C[C@@H]12 (stereo partly drawn) [Compound 3, 3α,7α,12α-Trihydroxy-6α-ethyl-23,23-gemdifluoro-5β-cholan-24-oic acid]	10 mM	–	1.0	2.7	–	–	–	1.1	225 µM (≈ 106 µg/mL)	–	–	–	–	–	–	–	–	–	–
CC[C@H]1[C@@H](O)C2C3CC[C@H]([C@H](C)CCc4nn[nH]n4)[C@@]3(C)CCC2[C@@]2(C)CC[C@@H](O)C[C@@H]12 (stereo partly drawn) [Compound 15, 3α,7α-Dihydroxy-6α-ethyl-23-(tetrazol-5-yl)-6α-ethyl-24-nor-5β-cholane]	–	–	1.2	–	76%	–	–	5.59	132 µM (≈ 58.7 µg/mL)	150 ± 50 nM	173 ± 22%	99 ± 3%	720 ± 50 nM	97 ± 7.6%	5000 ± 1000 nM	102%	440 nM	6000 nM	222%
CC[C@H]1[C@@H](O)C2C3CC[C@H]([C@H](C)CC(=O)NCCOS(=O)(=O)[O-])[C@@]3(C)CCC2[C@@]2(C)CC[C@@H](O)C[C@@H]12.[Na+] (stereo partly drawn) [Compound 21, Sodium 2-(3α,7α-dihydroxy-6α-ethyl-24-nor 5β-cholan-23-amido)-ethyl sulfate]	4 mM	–	0.9	–	86%	–	–	< 1	1810 µM	1500 ± 500 nM	136 ± 7%	105 ± 2%	20 ± 10 nM	127 ± 1%	190 ± 50 nM	107%	70 nM	5400 nM	136%
C[C@H](CCC(=O)NCC(=O)O)[C@H]1CC[C@H]2[C@@H]3[C@H](O)C[C@@H]4C[C@H](O)CC[C@]4(C)[C@H]3C[C@H](O)[C@]12C [GCA, reference compound]	8 mM	48.8 Dyne/cm	−0.4	6.3	65%	32 µM (≈ 14.9 µg/mL)	–	3.9	–	–	–	–	–	–	–	–	–	–	–
CC[C@H]1[C@@H](O)C2C3CC[C@H]([C@H](C)C[C@H](C)C(=O)O)[C@@]3(C)[C@@H](O)CC2[C@@]2(C)CC[C@@H](O)C[C@@H]12 (some centres unmarked) [Ref. Cmpd. A, reference compound]	2 mM	50.1 Dyne/cm	1.4	6.1	62%	–	–	5	–	–	–	–	–	–	–	–	–	–	–

More lines, main results first:

CMC [1]	STCMC [1]	LogPA− [2]	CMpH [3]	Albumin binding (%) (bovine serum albumin)	solubility thermodynamic at 1 week (Water solubility)	Ws (Water solubility)	Compound	pKa (pKa)	solubility thermodynamic at 1 week (Water solubility; [8])	EC50 [4]	Emax [4]	Emax (TGR5 [5])	EC50 (TGR5 [5])	Emax (TGR5 [6])	EC50 (TGR5 [6])	Emax (mTGR5)	EC50 (mTGR5)	EC50 [7]	Emax [7]
3.2 mM	45.5 Dyne/cm	2.2	7	96%	–	–	C[C@H](CCC(=O)O)[C@H]1CC[C@H]2[C@@H]3[C@H](O)C[C@@H]4C[C@H](O)CC[C@]4(C)[C@H]3CC[C@]12C [CDCA, chenodeoxycholic acid, reference compound]	5	–	–	–	–	–	–	–	–	–	–	–
4 mM	51 Dyne/cm	−0.5	–	42%	–	hs	C[C@H](CCC(=O)NCCS(=O)(=O)O)[C@H]1CC[C@H]2[C@@H]3[C@H](O)C[C@@H]4C[C@H](O)CC[C@]4(C)[C@H]3C[C@H](O)[C@]12C [TCA, reference compound]	<1 ^	–	–	–	–	–	–	–	–	–	–	–
3 mM	47.1 Dyne/cm	0.9	–	70%	–	hs	C[C@H](CCC(=O)NCCS(=O)(=O)O)[C@H]1CC[C@H]2[C@@H]3[C@H](O)C[C@@H]4C[C@H](O)CC[C@]4(C)[C@H]3CC[C@]12C [TCDCA, reference compound]	<1 ^	–	–	–	–	–	–	–	–	–	–	–
10 mM	50.5 Dyne/cm	2.2	8.2	94%	–	–	C[C@H](CCC(=O)O)[C@H]1CC[C@H]2[C@@H]3[C@@H](O)C[C@@H]4C[C@H](O)CC[C@]4(C)[C@H]3CC[C@]12C [UDCA, ursodeoxycholic acid, reference compound]	–	7 µM (≈ 2.75 µg/mL)	–	–	–	–	–	–	–	–	–	–
